Assays:
AtDEF2 = biological target: T1, AtDEF2 (Arabidopsis thaliana, UniProt Q9FUZ2); assay: Continuous spectrophotometric peptide deformylase activity and inhibition assay (formyl-Met-Leu-p-nitroanilide, coupled with Aeromonas proteolytica aminopeptidase); assay type: biochemical
T1 construct: the entire putative protein and the ChloroP-predicted chloroplast-length protein; initiator Met from the NdeI site (N); made in house; host or cells: E. coli BL21(DE3)pLysS, pET23b, clone #4-D
T1 sequence (Q9FUZ2 57-273): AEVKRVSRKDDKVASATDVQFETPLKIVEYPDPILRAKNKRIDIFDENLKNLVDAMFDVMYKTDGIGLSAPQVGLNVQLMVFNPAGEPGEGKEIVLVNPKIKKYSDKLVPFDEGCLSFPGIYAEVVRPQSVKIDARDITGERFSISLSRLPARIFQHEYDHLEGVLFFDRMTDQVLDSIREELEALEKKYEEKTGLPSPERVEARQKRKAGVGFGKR
Procedure: Experiments were designed to detect deformylase activity from recombinant AtDEF2 using the assay as described by Wei and Pei, Analytical Biochemistry 250:29-34 (1997). Continuous spectrophotometric assays of peptide deformylase activity were carried out at a temperature of 20° C. Assays were performed in polystyrene or quartz cuvettes containing 50 mM Tris-HCl, pH 8.2, 1 mM ethylene diamine bis(β-aminoethyl ether-N,N′-tetraacetic acid ([…]), 5 mM MgCl2, 200 μM NiSO4 0-200 μM peptide substrate and 1.0 units of Aeromonas proteolytica aminopeptidase. […] The reactions were monitored continuously at 405 nm in a Shimadzu UV-201 PC scanning spectrophotometer, and the initial rates were calculated from the early part of the reaction progression curves (<60 s). Spectrophotometric detection and quantitation was performed of p-nitroaniline released from formyl-Met-Leu-p-nitroanilide substrate (BACHEM Cat. No. L2030; King of Prussia, Pa. 19406 USA) following sequential action of AtDEF2 and Aeromonas proteolytica aminopeptidase (Sigma Cat. No. A8200; St. Louis, Mo., 63118 USA).

[1] = tested on: Pea plants (Pisum sativum L. cv. Laxton's Progress No. 9); assay: Assay for in vivo herbicidal activity on pea plants; settings: ten-day old pea plants
Procedure: Pea plants (Pisum sativum L. cv. Laxton's Progress No. 9) were sown in 46×62 cm flats of MetroMix 360 and grown for 10-12 days in a greenhouse (minimum night temperature of 30° C.) as described by Wang, P., Royer, M., and Houtz, R. L. Affinity purification of ribulose-1,5-bisphosphate carboxylase/oxygenase large subunit epsilon N-methyltransferase. Protein Expression and Purification 6:528-526 (1995). Ten-day old pea plants were treated with approximately 100-200 μl actinonin (final concentration. 2.5 mg/ml per plant in 0.1% Tween-20). Control plants were treated with 0.1% Tween-20. […] The changes were clearly visible within 48 hours after treatment with actinonin.

inhibition of deformylase activity after preincubation (AtDEF2; 43.5 μg AtDEF2 preincubated 3 minutes with 3.2 μM actinonin, assay then initiated with substrate): Nearly complete inhibition
inhibition of AtDEF2 activity (actinonin included in assay, no preincubation) (AtDEF2; within 60 seconds, FIG. 8, 20° C.): significantly inhibited
Compound: CCCCC[C@H](CC(=O)NO)C(=O)N[C@H](C(=O)N1CCC[C@H]1CO)C(C)C [actinonin]
time after treatment at which changes were clearly visible ([1]; 2.5 mg/ml actinonin in 0.1% Tween-20): ≤ 48 h
observable alterations in plant growth ([1]; approximately 100-200 μl actinonin, 2.5 mg/ml per plant in 0.1% Tween-20, foliar application): stunting and yellowing of pea plants
